Assays:
L1210FR = conditions: for differences in IC50 values against the three cell lines: L1210FR, L1210, WI38, at most
L1210 = experiment: cells; conditions: Mus musculus, L1210, 72 h, read-out: Cytotoxicities (IC50), L1210
in vitro = conditions: human, WI38 human lung fibroblast cells
[1] = taxoid released from first-generation mAb-taxoid DDS; cited from earlier work
L1210FR cells = experiment: Internalization of biotin-FITC probe 2 by CFM and flow cytometry; format: cell-based, murine; conditions: 100 nM

For CC(=O)O[C@@]12CO[C@@H]1C[C@H](O)[C@@]1(C)C(=O)[C@H](OC(=O)C3CC3)C3=C(C)[C@@H](OC(=O)[C@H](O)[C@H](C=C(C)C)NC(=O)OC(C)(C)C)C[C@@](O)([C@@H](OC(=O)c4ccccc4)[C@H]21)C3(C)C [SB-T-1214], the “times more potent than paclitaxel” value (L1210FR; against L1210FR) was “ca. 13 times”.

In the case of CC(=O)O[C@H]1C(=O)[C@@]2(C)[C@H]([C@H](OC(=O)c3ccccc3)[C@]3(O)C[C@H](OC(=O)[C@H](O)[C@@H](NC(=O)c4ccccc4)c4ccccc4)C(C)=C1C3(C)C)[C@]1(OC(C)=O)CO[C@@H]1C[C@@H]2O [paclitaxel, reference compound], the IC50 (L1210) is reported as 151 nM, the IC50 at 72 h (in vitro) is reported as 157 nM and the “differences in IC50 values against the three cell lines” value (L1210FR) is reported as “less than 45%”. The IC50 (L1210FR; mouse, 72 h) was 121 nM.

For SB-T-1214-fluorescein [compound 24], the “differences in IC50 values against the three cell lines” value (L1210FR) was “less than 45%” and the “times less potent than the parent SB-T-1214” value (L1210FR; against L1210FR) was “ca. 9 times”.

For SB-T-12136-SH, the “cytotoxicity, times weaker than the parent taxoid (SB-T-1213)” value [1] is listed as 8 times.

For biotin-FITC [compound 2], the “diminished fluorescence in the cells at 4 °C” value (L1210FR cells; 4 °C, 3 h versus 37 °C, by flow cytometry) was “ca. 6 times”, the “internalization into L1210FR cells (CFM)” value (L1210FR cells; 37 °C, 3 h) was “efficient internalization” and the “decrease in fluorescence after pre-incubation with excess free biotin” value (L1210FR cells; 37 °C, 3 h, biotin 2 mM pre-incubated 1 h) was “ca. 4.5 times”. For the same compound, the “decrease in fluorescence inside the cells in the presence of NaN3” value (L1210FR cells; 3 h, 37 °C, 0.05 % (w/v) NaN3) was “ca. 4 times”.
